Assays:
[1] = Accelerated autoxidation of lipids by air (Rancimat apparatus), antioxidative index; type: physicochemical; conditions: AOI=IP(with test solution)/IP(control sample); squalene purified over alumina, stabilized with 1 ppm α-tocopherol; dry air 20 l/h
Method: The activity of the exemplary compounds as in examples 1 to 3 as antioxidants was compared with that of conventional antioxidants. The test system used was the accelerated autoxidation of lipids by air with or without antioxidant using the Rancimat apparatus (Rancimat is a registered trademark of Metrohm AG, Herisau, Switzerland).
The exemplary compounds, vitamin C, α-tocopherol and dibutylhydroxytoluene were dissolved in methanol or acetone, and 100 μl of each test solution were added to a 3 g preprepared oil sample. In a control sample, only solvent was added. A constant stream of dry air (20 l/h) was bubbled through the heated oil sample which contained the test solution, and the volatile oxidation products (predominantly short-chain fatty acids such as formic acid or acetic acid) were collected in a receiver containing water. The conductivity of this aqueous solution was continuously measured and documented. The oxidation of (unsaturated) fats proceeds only very slowly for some time and then suddenly increases. The time to the increase is referred to as the induction period (IP).
The following equation was used to calculate the antioxidative index (AOI):
AOI=IP(with test solution)/IP(control sample).
The results for the experiment at […] in squalene that has been purified over alumina grade N and stabilized with 1 ppm of α-tocopherol are given in table 2: […]

[2] = DPPH (1,1-diphenyl-2-picrylhydrazyl) test for the removal of free radicals; type: physicochemical; conditions: c(test compound)/c(DPPH); DPPH 100 μmol/l in methanol; absorption at 515 nm
Method: The activity of the exemplary compounds as in examples 1 to 3 as free-radical scavengers was compared with that of conventional free-radical scavengers. For this purpose, the DPPH (1,1-diphenyl-2-picrylhydrazyl) test for the removal of free radicals was used.
DPPH was dissolved in methanol to a concentration of 100 μmol/l. A series of dilutions of the exemplary compounds, vitamin C, α-tocopherol and dibutylhydroxytoluene were prepared in methanol. Methanol served as the control. 2500 μl of the DPPH solution were mixed with 500 μl of each test solution and the decrease in absorption at 515 nm was read until the decrease was less than 2% per hour. The activity of the test substances as free-radical scavengers was calculated according to the following equation:
Activity as free-radical scavenger (%)=100−(absorption of the test compounds)/(absorption of the control)×100.
The activity as free-radical scavenger (%) in a series of dilutions of test compounds was used to calculate, for each test compound, the effective relative concentration EC50 (based on the starting concentration of DPPH, EC=c (test compound)/c(DPPH)) of a test compound at which 50% of the free radical DPPH had been removed.

EC50 (effective relative concentration at which 50% of the free radical DPPH had been removed) [2] [mol/mol]	SMILES	AOI in squalene at 80° C. with 0.005% of test substance [1]
0.12	CCCCC(CC)CNC(=O)C(O)c1ccc(O)c(O)c1 (stereo not drawn) [Example 1, 2-(3,4-Dihydroxyphenyl)-N-(2-ethylhexyl)-2-hydroxyacetamide]	69
0.11	O=C(NC1CCCCC1)C(O)c1ccc(O)c(O)c1 (stereo not drawn) [Example 2, N-Cyclohexyl-2-(3,4-dihydroxyphenyl)-2-hydroxyacetamide]	43
0.12	CCCCCCNC(=O)C(O)c1ccc(O)c(O)c1 (stereo not drawn) [Example 3, 2-(3,4-Dihydroxyphenyl)-N-n-hexyl-2-hydroxyacetamide]	55
0.27	O=C1O[C@H]([C@@H](O)CO)C(O)=C1O [Vitamin C]	0.7
0.25	Cc1c(C)c2c(c(C)c1O)CC[C@@](C)(CCC[C@H](C)CCC[C@H](C)CCCC(C)C)O2 [α-Tocopherol]	39

SMILES	EC50 (effective relative concentration at which 50% of the free radical DPPH had been removed) [2] [mol/mol]	AOI in squalene at 80° C. with 0.005% of test substance [1]
Cc1cc(C(C)(C)C)c(O)c(C(C)(C)C)c1 [Dibutylhydroxytoluene]	0.24	38

From patent US20030171617A1, “3,4-Dihydroxymandelic acid alkylamides and use thereof” (priority 2000, published 2003)
